From ChEMBL document CHEMBL2203230, “Compounds from the heartwood of Caesalpinia sappan and their anti-inflammatory activity” (Bioorg Med Chem Lett, 2012)

Columns and labels:
RAW264.7 [1] = assay: Antiinflammatory activity in mouse RAW264.7 cells assessed as inhibition of LPS-induced NO production after 24 hrs by Griess method; format: functional, cell-based; settings: RAW264.7, 24 h
RAW264.7 [2] = assay: Antiinflammatory activity in mouse RAW264.7 cells assessed as reduction in LPS-induced iNOS expression incubated for 30 mins prior to LPS-challenge measured after 18 hrs; format: functional, cell-based

| Compound | IC50 (RAW264.7 [1]) [µM] | Activity (RAW264.7 [2]) |
| --- | --- | --- |
| COc1cc(C[C@@]23COc4cc(O)ccc4[C@@H]2OC(C)(C)O3)ccc1O | > 50 |  |
| COc1cc2c(cc1O)[C@@H]1c3ccc(O)cc3OC[C@]1(O)C2 | > 50 |  |
| Oc1ccc2c(c1)OC[C@]1(O)Cc3c(ccc(O)c3O)[C@H]21 [CAESALPINIAPHENOL E] | > 50 |  |
| O=C(c1ccc(O)cc1O)[C@@H](O)Cc1ccc(O)cc1 | > 50 |  |
| COc1cc(C[C@@]2(O)COc3cc(O)ccc3[C@@H]2OC)ccc1O [CAESALPINIAPHENOL F] | > 50 |  |
| COC1(OC)COc2cc(O)ccc2-c2cc(O)c(O)cc2C1 [PROTOSAPPANINADIMETHYLACETAL] | > 50 |  |
| COc1cc2c(cc1O)C[C@@]1(O)COc3cc(O)ccc3[C@@H]21 | > 50 |  |
| Oc1ccc2c(c1)OC[C@@H]1Cc3cc(O)c(O)cc3[C@H]21 [BRAZILANE] | 36.7 |  |
| CC1(C)O[C@H]2c3ccc(O)cc3OC[C@@]2(Cc2ccc(O)cc2)O1 | > 50 |  |
| CO[C@H]1[C@]2(O)COC3=CC(=O)C=C[C@@]31c1cc(O)c(O)cc1C2 [CAESALPINJ] | > 50 |  |
| COc1cc(O)ccc1C(=O)/C=C/c1ccc(O)cc1 | 8.1 | Dose-dependent effect |
| Oc1ccc2c(c1)OC[C@]1(O)Cc3cc(O)c(O)cc3[C@H]21 [BRAZILIN] | 43.5 |  |
